Like-named read-outs stand apart in the source and are kept apart here.
Columns and labels:
Format in all cases: in vivo
[1] = system: barnyardgrass (Echinochloa crus-galli); experiment: Test A pre/postemergence; details: Echinochloa crus-galli, 240 h, read-out: Plant response rating, Barnyardgrass; for pest or weed control at 125 g/ha: 125 g ai/ha; for pest or weed control at 500 g/ha: 500 g ai/ha
Method in brief: (§1)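 Soil: loam blended with sand. Formulation: non-phytotoxic solvent mixture with surfactant. Timing: preemergence soil spray plus concurrent postemergence spray (plants 2–10 cm, 1–2 leaves). Readout: visual injury versus untreated controls at ~10 days, 0–100.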

[2] = system: giant foxtail (Setaria faberi); experiment: Test A pre/postemergence; details: Setaria faberi, 240 h, read-out: Plant response rating, Foxtail, Giant; for pest or weed control at 125 g/ha: 125 g ai/ha; for pest or weed control at 500 g/ha: 500 g ai/ha
Method in brief: as §1

[3] = system: bermudagrass (Cynodon dactylon); experiment: Test C pre/postemergence; details: Cynodon dactylon; for pest or weed control at 16 g/ha: 16 g ai/ha; for pest or weed control at 31 g/ha: 31 g ai/ha; for pest or weed control at 62 g/ha: 62 g ai/ha; for pest or weed control at 125 g/ha: 125 g ai/ha
Method in brief: (§2)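 Rating scale 0–100: 0 means no effect, 100 complete control; taken visually 12 to 14 days post-treatment versus controls. Pre- and postemergence greenhouse applications, postemergence at 1- to 4-leaf stage, non-phytotoxic solvent with surfactant as carrier.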

[4] = system: cocklebur (Xanthium strumarium); experiment: Test C pre/postemergence; details: Xanthium strumarium; for pest or weed control at 16 g/ha: 16 g ai/ha; for pest or weed control at 31 g/ha: 31 g ai/ha; for pest or weed control at 62 g/ha: 62 g ai/ha; for pest or weed control at 125 g/ha: 125 g ai/ha
Method in brief: as §2

[5] = system: corn (Zea mays); experiment: Test C pre/postemergence; details: Zea mays; for Corn plant response rating (crop injury, 0 = no effect, 100 = complete kill) at 16 g/ha: 16 g ai/ha; for Corn plant response rating (crop injury, 0 = no effect, 100 = complete kill) at 31 g/ha: 31 g ai/ha; for Corn plant response rating (crop injury, 0 = no effect, 100 = complete kill) at 62 g/ha: 62 g ai/ha; for Corn plant response rating (crop injury, 0 = no effect, 100 = complete kill) at 125 g/ha: 125 g ai/ha
Method in brief: as §2

[6] = system: crabgrass (Digitaria sanguinalis); experiment: Test C pre/postemergence; details: Digitaria sanguinalis; for pest or weed control at 16 g/ha: 16 g ai/ha; for pest or weed control at 31 g/ha: 31 g ai/ha; for pest or weed control at 62 g/ha: 62 g ai/ha; for pest or weed control at 125 g/ha: 125 g ai/ha
Method in brief: as §2

[7] = system: eastern black nightshade (Solanum ptycanthum); experiment: Test C pre/postemergence; details: Solanum, pre-emergence, Preemergence, scale 0 to 100, 0 no effect, 100 complete control, read-out: Plant response rating, Nightshade
Method in brief: as §2

[8] = system: goosegrass (Eleusine indica); experiment: Test C pre/postemergence; details: Eleusine indica; for pest or weed control at 16 g/ha: 16 g ai/ha; for pest or weed control at 31 g/ha: 31 g ai/ha; for pest or weed control at 62 g/ha: 62 g ai/ha; for pest or weed control at 125 g/ha: 125 g ai/ha
Method in brief: as §2

[9] = system: lambsquarters (Chenopodium album); experiment: Test C pre/postemergence; details: Chenopodium album; for pest or weed control at 16 g/ha: 16 g ai/ha; for pest or weed control at 31 g/ha: 31 g ai/ha; for pest or weed control at 62 g/ha: 62 g ai/ha; for pest or weed control at 125 g/ha: 125 g ai/ha
Method in brief: as §2

[10] = system: velvetleaf (Abutilon theophrasti); experiment: Test C pre/postemergence; details: Abutilon theophrasti; for pest or weed control at 16 g/ha: 16 g ai/ha; for pest or weed control at 31 g/ha: 31 g ai/ha; for pest or weed control at 62 g/ha: 62 g ai/ha
Method in brief: as §2

[11] = post-emergence, Postemergence, 0 to 100 scale (0 no effect, 100 complete control)
[12] = pre-emergence, Preemergence, 0 to 100 scale where 0 is no effect and 100 is complete control, approximately ten days
[13] = post-emergence, Postemergence, read-out: Plant response rating (scale of 0 to 100), Bermudagrass
[14] = post-emergence, Postemergence, scale 0 to 100 (0 no effect, 100 complete control), read-out: Bermudagrass plant response rating
[15] = pre-emergence, Preemergence, scale 0 to 100, 0 no effect, 100 complete control, read-out: Plant response rating, Bermudagrass
[16] = post-emergence, Postemergence, read-out: Plant response rating (scale of 0 to 100), Cocklebur
[17] = pre-emergence, Preemergence, scale 0 to 100, 0 no effect, 100 complete control, read-out: Plant response rating, Cocklebur
[18] = post-emergence, Postemergence, read-out: Plant response rating (scale of 0 to 100), Corn
[19] = pre-emergence, Preemergence, scale 0 to 100, 0 no effect, 100 complete control, read-out: Plant response rating, Corn
[20] = post-emergence, Postemergence, read-out: Plant response rating (scale of 0 to 100), Crabgrass
[21] = pre-emergence, Preemergence, scale 0 to 100, 0 no effect, 100 complete control, read-out: Plant response rating, Crabgrass
[22] = post-emergence, Postemergence, read-out: Plant response rating (scale of 0 to 100), Goosegrass
[23] = pre-emergence, Preemergence, scale 0 to 100, 0 no effect, 100 complete control, read-out: Plant response rating, Goosegrass
[24] = post-emergence, Postemergence, read-out: Plant response rating (scale of 0 to 100), Lambsquarters
[25] = pre-emergence, Preemergence, scale 0 to 100, 0 no effect, 100 complete control, read-out: Plant response rating, Lambsquarters
[26] = post-emergence, Postemergence, read-out: Plant response rating (scale of 0 to 100), Velvetleaf
[27] = pre-emergence, Preemergence, scale 0 to 100, 0 no effect, 100 complete control, read-out: Plant response rating, Velvetleaf

SMILES: Nc1nc(-c2ccc(Cl)cc2)nc(C(=O)O)c1Cl [Compound 65, 6-amino-5-chloro-2-(4-chlorophenyl)-4-pyrimidinecarboxylic acid]
- pest or weed control at 125 g/ha [1, 11]: 85%
- pest or weed control at 500 g/ha [1, 11]: 85%
- pest or weed control at 125 g/ha [1, 12]: 50%
- pest or weed control at 500 g/ha [1, 12]: 90%
- pest or weed control at 125 g/ha [2, 11]: 85%
- pest or weed control at 500 g/ha [2, 11]: 95%
- pest or weed control at 125 g/ha [2, 12]: 40%
- pest or weed control at 500 g/ha [2, 12]: 80%
- pest or weed control at 16 g/ha [3, 13]: 60%
- pest or weed control at 31 g/ha [3, 13]: 60%
- pest or weed control at 62 g/ha [3, 14]: 70%
- pest or weed control at 125 g/ha [3, 14]: 70%
- pest or weed control at 16 g/ha [3, 15]: 0%
- pest or weed control at 31 g/ha [3, 15]: 50%
- pest or weed control at 62 g/ha [3, 15]: 70%
- pest or weed control at 125 g/ha ([3]; pre-emergence, Preemergence, scale 0 to 100, read-out: Plant response rating, Bermudagrass): 80%
- pest or weed control at 16 g/ha [4, 16]: 90%
- pest or weed control at 31 g/ha [4, 16]: 100%
- pest or weed control at 62 g/ha [4, 16]: 100%
- pest or weed control at 125 g/ha ([4]; post-emergence, Postemergence, scale 0 to 100 (0 no effect, 100 complete control), read-out: Cocklebur plant response rating): 100%
- pest or weed control at 16 g/ha [4, 17]: 0%
- pest or weed control at 31 g/ha [4, 17]: 30%
- pest or weed control at 62 g/ha [4, 17]: 50%
- pest or weed control at 125 g/ha ([4]; pre-emergence, Preemergence, scale 0 to 100, read-out: Plant response rating, Cocklebur): 90%
- Corn plant response rating (crop injury, 0 = no effect, 100 = complete kill) at 16 g/ha [5, 18]: 5%
- Corn plant response rating (crop injury, 0 = no effect, 100 = complete kill) at 31 g/ha [5, 18]: 90%
- Corn plant response rating (crop injury, 0 = no effect, 100 = complete kill) at 62 g/ha [5, 18]: 90%
- Corn plant response rating (crop injury, 0 = no effect, 100 = complete kill) at 125 g/ha ([5]; post-emergence, Postemergence, scale 0 to 100 (0 no effect, 100 complete control), read-out: Corn plant response rating): 90%
- Corn plant response rating (crop injury, 0 = no effect, 100 = complete kill) at 16 g/ha [5, 19]: 0%
- Corn plant response rating (crop injury, 0 = no effect, 100 = complete kill) at 31 g/ha [5, 19]: 0%
- Corn plant response rating (crop injury, 0 = no effect, 100 = complete kill) at 62 g/ha [5, 19]: 0%
- Corn plant response rating (crop injury, 0 = no effect, 100 = complete kill) at 125 g/ha ([5]; pre-emergence, Preemergence, scale 0 to 100, read-out: Plant response rating, Corn): 30%
- pest or weed control at 16 g/ha [6, 20]: 80%
- pest or weed control at 31 g/ha [6, 20]: 80%
- pest or weed control at 62 g/ha [6, 20]: 90%
- pest or weed control at 125 g/ha ([6]; post-emergence, Postemergence, scale 0 to 100 (0 no effect, 100 complete control), read-out: Crabgrass plant response rating): 90%
- pest or weed control at 16 g/ha [6, 21]: 0%
- pest or weed control at 31 g/ha [6, 21]: 20%
- pest or weed control at 62 g/ha [6, 21]: 70%
- pest or weed control at 125 g/ha ([6]; pre-emergence, Preemergence, scale 0 to 100, read-out: Plant response rating, Crabgrass): 80%
- pest or weed control at 16 g/ha ([7]; 16 g ai/ha): 0%
- pest or weed control at 31 g/ha ([7]; 31 g ai/ha): 0%
- pest or weed control at 16 g/ha [8, 22]: 50%
- pest or weed control at 31 g/ha [8, 22]: 50%
- pest or weed control at 62 g/ha [8, 22]: 70%
- pest or weed control at 125 g/ha ([8]; post-emergence, Postemergence, scale 0 to 100 (0 no effect, 100 complete control), read-out: Goosegrass plant response rating): 70%
- pest or weed control at 16 g/ha [8, 23]: 0%
- pest or weed control at 31 g/ha [8, 23]: 0%
- pest or weed control at 62 g/ha [8, 23]: 0%
- pest or weed control at 125 g/ha ([8]; pre-emergence, Preemergence, scale 0 to 100, read-out: Plant response rating, Goosegrass): 50%
- pest or weed control at 16 g/ha [9, 24]: 85%
- pest or weed control at 31 g/ha [9, 24]: 90%
- pest or weed control at 62 g/ha [9, 24]: 90%
- pest or weed control at 125 g/ha ([9]; post-emergence, Postemergence, scale 0 to 100 (0 no effect, 100 complete control), read-out: Lambsquarters plant response rating): 95%
- pest or weed control at 16 g/ha [9, 25]: 0%
- pest or weed control at 31 g/ha [9, 25]: 50%
- pest or weed control at 62 g/ha [9, 25]: 80%
- pest or weed control at 125 g/ha ([9]; pre-emergence, Preemergence, scale 0 to 100, read-out: Plant response rating, Lambsquarters): 100%
- pest or weed control at 16 g/ha [10, 26]: 65%
- pest or weed control at 31 g/ha [10, 26]: 80%
- pest or weed control at 62 g/ha [10, 26]: 80%
- pest or weed control at 125 g/ha ([10]; post-emergence, Postemergence, 125 g ai/ha, scale 0 to 100 (0 no effect, 100 complete control), read-out: Velvetleaf plant response rating): 90%
- pest or weed control at 16 g/ha [10, 27]: 0%
- pest or weed control at 31 g/ha [10, 27]: 40%
- pest or weed control at 62 g/ha [10, 27]: 80%

Reference: US8802597B2, “Herbicidal pyrimidines” (E I du Pont de Nemours and Company, priority 2003, dated 2014)
